# Results from patent US4782160A, “1,4-dihydropyridine derivatives” (Yamanouchi Pharmaceutical Co., Ltd., priority 1986, dated 1988).
# Legend:
# [1] = target: [^3 H]-Nitrendipine-labeled calcium channels; assay: [3H]-nitrendipine binding assay in rat brain membranes (Ca2+-antagonistic activity); conditions: mean of 3 experiments, 95% confidence limits in parenthesis on next line
# Experimental: 1. Ca^2+ -Antagonistic activity:
# Ca^2+ -Antagonistic activity of the compound was evaluated in [^3 H]-nitrendipine ([^3 H]-NIT) binding assay.
# [2] = system: conscious normotensive rats; assay: Hypotensive activity: blood pressure and heart rate in conscious normotensive rats after oral administration; type: in vivo, rat
# Experimental: The effect of the compound on arterial blood pressure (systolic, SBP mean, MBP diastolic, DBP) and heart rate (HR) was evaluated in conscious normotensive rats (NTR). Four to six days before the experiments, a polyethylene catheter for recording arterial blood pressure was surgically implanted into the thoracic aorta via the carotid artery under ether anesthesia. Arterial blood pressure and heart rate were recorded under freely moving conditions. The test compounds were suspended in 0.5% methylcellulose solution and administered by oral gavage.
# Table 2 summarizes the changes in HR, SBP, MBP and DBP of conscious NTR after oral administration of the test compounds.
# [3] = Acute toxicity in mice, intravenous (Up and Down Method); conditions: mouse, in vivo, i.v., ICR-SLC mice, n=10
# Experimental: Acute toxicity of the test compound was evaluated according to the method of Brownlee, Hodges and Rosenblatt (The Up and Down Method with Small Samples. J. Am. Stat. As., 48, 262-277, 1953). The […] value of the test compound after intravenous injection to ICR-SLC mice was obtained (Table 3).
# [4] = based on calcium antagonistic activity; cited from earlier work
smiles,measurement,setting,value
"COC(=O)C1=C(C)NC(C)=C(C(=O)OC)C1c1cc([N+](=O)[O-])ccc1OCCCCNCCCOc1ccccc1 [Example 1, dimethyl 4-[2-[4-(3-phenoxypropylamino)butoxy]-5-nitrophenyl]-2,6-dimethyl-1,4-dihydropyridine-3,5-dicarboxylate]",Ki,[1],75 nM
same,DBP Change (Δ),"[2]; 30 mg/kg p.o., 1 hr, n=6, initial 103 ± 3.6",-13.0 mmHg
same,MBP Change (Δ),"[2]; 30 mg/kg p.o., 1 hr, n=6, initial 114 ± 3.6",-12.1 mmHg
same,SBP Change (Δ),"[2]; 30 mg/kg p.o., 1 hr, n=6, initial 137 ± 3.7",-10.2 mmHg
same,HR Change (Δ),"[2]; 30 mg/kg p.o., 1 hr, n=6, initial 361 ± 7.7",43.0 beats/min
same,DBP Change (Δ),"[2]; 30 mg/kg p.o., 2 hr, n=6, initial 103 ± 3.6",-21.3 mmHg
same,MBP Change (Δ),"[2]; 30 mg/kg p.o., 2 hr, n=6, initial 114 ± 3.6",-20.0 mmHg
same,SBP Change (Δ),"[2]; 30 mg/kg p.o., 2 hr, n=6, initial 137 ± 3.7",-17.2 mmHg
same,HR Change (Δ),"[2]; 30 mg/kg p.o., 2 hr, n=6, initial 361 ± 7.7",77.8 beats/min
same,DBP Change (Δ),"[2]; 30 mg/kg p.o., 3 hr, n=6, initial 103 ± 3.6",-25.5 mmHg
same,MBP Change (Δ),"[2]; 30 mg/kg p.o., 3 hr, n=6, initial 114 ± 3.6",-25.1 mmHg
same,SBP Change (Δ),"[2]; 30 mg/kg p.o., 3 hr, n=6, initial 137 ± 3.7",-24.3 mmHg
same,HR Change (Δ),"[2]; 30 mg/kg p.o., 3 hr, n=6, initial 361 ± 7.7",62.2 beats/min
same,DBP Change (Δ),"[2]; 30 mg/kg p.o., 4 hr, n=6, initial 103 ± 3.6",-19.0 mmHg
same,MBP Change (Δ),"[2]; 30 mg/kg p.o., 4 hr, n=6, initial 114 ± 3.6",-18.9 mmHg
same,SBP Change (Δ),"[2]; 30 mg/kg p.o., 4 hr, n=6, initial 137 ± 3.7",-18.7 mmHg
same,HR Change (Δ),"[2]; 30 mg/kg p.o., 4 hr, n=6, initial 361 ± 7.7",55.0 beats/min
same,DBP Change (Δ),"[2]; 30 mg/kg p.o., 5 hr, n=6, initial 103 ± 3.6",-16.7 mmHg
same,MBP Change (Δ),"[2]; 30 mg/kg p.o., 5 hr, n=6, initial 114 ± 3.6",-16.5 mmHg
same,SBP Change (Δ),"[2]; 30 mg/kg p.o., 5 hr, n=6, initial 137 ± 3.7",-16.2 mmHg
same,HR Change (Δ),"[2]; 30 mg/kg p.o., 5 hr, n=6, initial 361 ± 7.7",55.3 beats/min
same,DBP Change (Δ),"[2]; 30 mg/kg p.o., 6 hr, n=6, initial 103 ± 3.6",-13.2 mmHg
same,MBP Change (Δ),"[2]; 30 mg/kg p.o., 6 hr, n=6, initial 114 ± 3.6",-14.4 mmHg
same,SBP Change (Δ),"[2]; 30 mg/kg p.o., 6 hr, n=6, initial 137 ± 3.7",-16.8 mmHg
same,HR Change (Δ),"[2]; 30 mg/kg p.o., 6 hr, n=6, initial 361 ± 7.7",30.5 beats/min
same,DBP Change (Δ),"[2]; 30 mg/kg p.o., 8 hr, n=6, initial 103 ± 3.6",-12.5 mmHg
same,MBP Change (Δ),"[2]; 30 mg/kg p.o., 8 hr, n=6, initial 114 ± 3.6",-13.5 mmHg
same,SBP Change (Δ),"[2]; 30 mg/kg p.o., 8 hr, n=6, initial 137 ± 3.7",-15.3 mmHg
same,HR Change (Δ),"[2]; 30 mg/kg p.o., 8 hr, n=6, initial 361 ± 7.7",33.0 beats/min
same,DBP Change (Δ),"[2]; 30 mg/kg p.o., 10 hr, n=6, initial 103 ± 3.6",-12.3 mmHg
same,MBP Change (Δ),"[2]; 30 mg/kg p.o., 10 hr, n=6, initial 114 ± 3.6",-13.1 mmHg
same,SBP Change (Δ),"[2]; 30 mg/kg p.o., 10 hr, n=6, initial 137 ± 3.7",-14.7 mmHg
same,HR Change (Δ),"[2]; 30 mg/kg p.o., 10 hr, n=6, initial 361 ± 7.7",22.5 beats/min
same,DBP Change (Δ),"[2]; 30 mg/kg p.o., 24 hr, n=6, initial 103 ± 3.6",0.7 mmHg
same,MBP Change (Δ),"[2]; 30 mg/kg p.o., 24 hr, n=6, initial 114 ± 3.6",0.7 mmHg
same,SBP Change (Δ),"[2]; 30 mg/kg p.o., 24 hr, n=6, initial 137 ± 3.7",0.7 mmHg
same,HR Change (Δ),"[2]; 30 mg/kg p.o., 24 hr, n=6, initial 361 ± 7.7",28.0 beats/min
same,LD50,[3],29 mg/kg
COC(=O)C1=C(C)NC(C)=C(C(=O)OCCN(C)Cc2ccccc2)C1c1cccc([N+](=O)[O-])c1 (centres unmarked) [Nicardipine],cerebro- and/or coronary vasodilating action,[4],exhibits cerebro- and/or coronary vasodilating action
"COC(=O)C1=C(C)NC(C)=C(C(=O)OC)C1c1ccccc1[N+](=O)[O-] [Nifedipine, reference compound]",DBP Change (Δ),"[2]; 3 mg/kg p.o., 0.25 hr, n=8, initial 97 ± 1.8",-20.9 mmHg
same,MBP Change (Δ),"[2]; 3 mg/kg p.o., 0.25 hr, n=8, initial 110 ± 1.8",-18.7 mmHg
same,SBP Change (Δ),"[2]; 3 mg/kg p.o., 0.25 hr, n=8, initial 136 ± 2.2",-14.4 mmHg
same,HR Change (Δ),"[2]; 3 mg/kg p.o., 0.25 hr, n=8, initial 349 ± 6.9",77.4 beats/min
same,DBP Change (Δ),"[2]; 3 mg/kg p.o., 0.5 hr, n=8, initial 97 ± 1.8",-19.9 mmHg
same,MBP Change (Δ),"[2]; 3 mg/kg p.o., 0.5 hr, n=8, initial 110 ± 1.8",-19.1 mmHg
same,SBP Change (Δ),"[2]; 3 mg/kg p.o., 0.5 hr, n=8, initial 136 ± 2.2",-17.6 mmHg
same,HR Change (Δ),"[2]; 3 mg/kg p.o., 0.5 hr, n=8, initial 349 ± 6.9",51.6 beats/min
same,DBP Change (Δ),"[2]; 3 mg/kg p.o., 0.75 hr, n=8, initial 97 ± 1.8",-20.1 mmHg
same,MBP Change (Δ),"[2]; 3 mg/kg p.o., 0.75 hr, n=8, initial 110 ± 1.8",-19.5 mmHg
same,SBP Change (Δ),"[2]; 3 mg/kg p.o., 0.75 hr, n=8, initial 136 ± 2.2",-18.1 mmHg
same,HR Change (Δ),"[2]; 3 mg/kg p.o., 0.75 hr, n=8, initial 349 ± 6.9",35.4 beats/min
same,DBP Change (Δ),"[2]; 3 mg/kg p.o., 1 hr, n=8, initial 97 ± 1.8",-18.9 mmHg
same,SBP Change (Δ),"[2]; 3 mg/kg p.o., 1 hr, n=8, initial 136 ± 2.2",-17.0 mmHg
same,HR Change (Δ),"[2]; 3 mg/kg p.o., 1 hr, n=8, initial 349 ± 6.9",23.0 beats/min
same,DBP Change (Δ),"[2]; 3 mg/kg p.o., 1.5 hr, n=8, initial 97 ± 1.8",-11.8 mmHg
same,MBP Change (Δ),"[2]; 3 mg/kg p.o., 1.5 hr, n=8, initial 110 ± 1.8",-11.5 mmHg
same,SBP Change (Δ),"[2]; 3 mg/kg p.o., 1.5 hr, n=8, initial 136 ± 2.2",-11.0 mmHg
same,HR Change (Δ),"[2]; 3 mg/kg p.o., 1.5 hr, n=8, initial 349 ± 6.9",12.9 beats/min
same,DBP Change (Δ),"[2]; 3 mg/kg p.o., 2 hr, n=8, initial 97 ± 1.8",-9.4 mmHg
same,MBP Change (Δ),"[2]; 3 mg/kg p.o., 2 hr, n=8, initial 110 ± 1.8",-9.7 mmHg
same,SBP Change (Δ),"[2]; 3 mg/kg p.o., 2 hr, n=8, initial 136 ± 2.2",-10.4 mmHg
same,HR Change (Δ),"[2]; 3 mg/kg p.o., 2 hr, n=8, initial 349 ± 6.9",2.3 beats/min
same,DBP Change (Δ),"[2]; 3 mg/kg p.o., 3 hr, n=8, initial 97 ± 1.8",-2.6 mmHg
same,MBP Change (Δ),"[2]; 3 mg/kg p.o., 3 hr, n=8, initial 110 ± 1.8",-3.5 mmHg
same,SBP Change (Δ),"[2]; 3 mg/kg p.o., 3 hr, n=8, initial 136 ± 2.2",-5.4 mmHg
same,HR Change (Δ),"[2]; 3 mg/kg p.o., 3 hr, n=8, initial 349 ± 6.9",-20.3 beats/min
same,DBP Change (Δ),"[2]; 3 mg/kg p.o., 4 hr, n=8, initial 97 ± 1.8",0.9 mmHg
same,MBP Change (Δ),"[2]; 3 mg/kg p.o., 4 hr, n=8, initial 110 ± 1.8",0.5 mmHg
same,SBP Change (Δ),"[2]; 3 mg/kg p.o., 4 hr, n=8, initial 136 ± 2.2",-0.3 mmHg
same,HR Change (Δ),"[2]; 3 mg/kg p.o., 4 hr, n=8, initial 349 ± 6.9",-13.4 beats/min
same,cerebro- and/or coronary vasodilating action,[4],exhibits cerebro- and/or coronary vasodilating action
